Measured values published in ChEMBL document CHEMBL6109144, “Discovery of New Difluorocyclobutyl Derivatives as Effective Glucagon-Like Peptide-1 Receptor Agonists with Reduced hERG Inhibitory Activities” (J Med Chem, 2025).

Experiments:
hERG (KCNH2) [1] = target: T1, hERG (KCNH2) (Homo sapiens, UniProt Q12809); assay: Inhibition of hERG at 1 uM at -80 mV holding potential by whole-cell patch clamp analysis relative to control; assay type: toxicity
in vivo = details: Sprague-Dawley, rat, po, 5 mg/kg
[2] = target: Glucagon-like peptide 1 receptor (Homo sapiens, UniProt P43220); assay: Agonist activity at N-terminal hemagglutinin-tagged human GLP-1R expressed in CHO cells co-transfected with pcDNA3.0 assessed as increase in intracellular cAMP accumulation incubated for 30 mins by microplate reader analysis; assay type: functional, cell-based
Chain of Glucagon-like peptide 1 receptor (P43220 whole entry): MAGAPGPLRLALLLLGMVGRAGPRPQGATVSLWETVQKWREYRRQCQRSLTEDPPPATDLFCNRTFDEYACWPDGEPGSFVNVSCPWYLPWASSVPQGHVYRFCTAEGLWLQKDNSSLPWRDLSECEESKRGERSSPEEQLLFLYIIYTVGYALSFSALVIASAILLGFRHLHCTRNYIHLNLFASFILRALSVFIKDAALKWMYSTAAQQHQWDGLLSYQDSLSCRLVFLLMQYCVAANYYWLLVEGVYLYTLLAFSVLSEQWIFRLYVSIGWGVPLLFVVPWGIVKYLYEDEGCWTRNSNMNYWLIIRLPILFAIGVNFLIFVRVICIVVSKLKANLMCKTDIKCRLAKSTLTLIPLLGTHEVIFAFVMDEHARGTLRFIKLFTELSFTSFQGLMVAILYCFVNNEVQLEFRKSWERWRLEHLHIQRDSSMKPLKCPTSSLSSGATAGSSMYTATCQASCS

hERG (KCNH2) [3] = target: T1, hERG (KCNH2); assay: Inhibition of hERG at 10 uM at -80 mV holding potential by whole-cell patch clamp analysis relative to control; assay type: toxicity
[4] = Cmax in Sprague-Dawley rat at 5 mg/kg, po measured up to 24 hrs by LC-MS/MS analysis; assay type: ADME, organism-based; details: in vivo
[5] = Observed apparent oral clearance in Sprague-Dawley rat at 5 mg/kg, po measured up to 24 hrs by LC-MS/MS analysis; assay type: ADME, organism-based; details: in vivo
[6] = AUC (0 to infinity) in Sprague-Dawley rat at 5 mg/kg, po measured up to 24 hrs by LC-MS/MS analysis; assay type: ADME, organism-based; details: in vivo
[7] = Fraction of the dose absorbed in Sprague-Dawley rat at 5 mg/kg, po measured up to 24 hrs by LC-MS/MS analysis; assay type: ADME, organism-based; details: in vivo, read-out: Fabs
[8] = Half life in Sprague-Dawley rat at 5 mg/kg, po measured up to 24 hrs by LC-MS/MS analysis; assay type: ADME, organism-based; details: in vivo

T1 sequence (Q12809 whole entry): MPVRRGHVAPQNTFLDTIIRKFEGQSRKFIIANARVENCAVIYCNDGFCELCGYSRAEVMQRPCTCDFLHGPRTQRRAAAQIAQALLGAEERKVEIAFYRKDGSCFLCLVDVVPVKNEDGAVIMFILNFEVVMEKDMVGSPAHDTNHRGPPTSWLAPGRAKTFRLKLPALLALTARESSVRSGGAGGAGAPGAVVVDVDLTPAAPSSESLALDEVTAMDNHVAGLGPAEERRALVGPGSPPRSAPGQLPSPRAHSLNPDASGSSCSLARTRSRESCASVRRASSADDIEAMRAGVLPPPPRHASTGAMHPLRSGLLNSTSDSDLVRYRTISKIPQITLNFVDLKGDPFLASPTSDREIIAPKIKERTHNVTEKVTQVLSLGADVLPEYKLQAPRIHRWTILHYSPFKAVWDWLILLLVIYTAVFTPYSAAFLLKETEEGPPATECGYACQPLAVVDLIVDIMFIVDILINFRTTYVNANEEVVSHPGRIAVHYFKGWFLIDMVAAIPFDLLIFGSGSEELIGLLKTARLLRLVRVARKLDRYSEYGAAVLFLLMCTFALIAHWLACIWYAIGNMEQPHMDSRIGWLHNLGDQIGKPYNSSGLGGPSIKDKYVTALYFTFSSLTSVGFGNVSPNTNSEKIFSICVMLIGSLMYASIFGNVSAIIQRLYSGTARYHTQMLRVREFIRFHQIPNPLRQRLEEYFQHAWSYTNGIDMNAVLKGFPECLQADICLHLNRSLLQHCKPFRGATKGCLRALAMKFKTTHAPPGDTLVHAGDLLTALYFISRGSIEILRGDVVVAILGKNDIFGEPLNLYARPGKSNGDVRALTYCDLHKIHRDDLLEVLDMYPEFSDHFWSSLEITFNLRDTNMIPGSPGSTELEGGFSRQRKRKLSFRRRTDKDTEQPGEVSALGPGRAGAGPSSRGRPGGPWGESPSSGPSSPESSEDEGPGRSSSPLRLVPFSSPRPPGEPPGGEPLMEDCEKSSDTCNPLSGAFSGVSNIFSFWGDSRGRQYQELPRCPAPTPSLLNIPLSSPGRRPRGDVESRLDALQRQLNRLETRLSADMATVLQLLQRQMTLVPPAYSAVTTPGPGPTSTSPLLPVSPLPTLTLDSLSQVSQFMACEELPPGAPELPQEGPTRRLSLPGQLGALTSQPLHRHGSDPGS

| SMILES | inhibition at 1 µM (hERG (KCNH2) [1]) | Tmax at 24 h (in vivo) | EC50 [2] | inhibition at 10 µM (hERG (KCNH2) [3]) | Cmax [4] | CL/F [5] | AUC(0-inf) [6] | Fa at 24 h [7] | half-life [8] |
| --- | --- | --- | --- | --- | --- | --- | --- | --- | --- |
| O=C(O)c1ccc2nc(CN3CCC(Oc4cccc(COc5ccc(Cl)c6ccoc56)n4)CC3)n(C[C@@H]3CCO3)c2n1 | 1% | 0.5 h | 0.062 nM | 9.8% | 116 ng/mL | 448 mL/min/kg | 204 ng·h/mL | 13.4% |  |
| O=C(O)c1cc(F)c2nc(CN3CCC(c4cccc(OCc5ccc(C6CC(F)(F)C6)cc5F)n4)CC3)n(C[C@@H]3CCO3)c2c1 |  | 2 h | 0.026 nM | 101% | 65.6 ng/mL | 375 mL/min/kg | 229 ng·h/mL | 6.7% | 2.3 h |
| O=C(O)c1ccc2nc(Cc3ccc(-c4cccc(OCc5ccc(C6CC(F)(F)C6)cc5F)n4)cc3F)n(C[C@@H]3CCO3)c2c1 | 0.58% | 1.33 h | 0.031 nM | 4.76% | 33.6 ng/mL | 963 mL/min/kg | 91 ng·h/mL | 2.86% | 2.19 h |
| Cn1nc(Cl)c2ccc(OCc3cccc(OC4CCN(Cc5nc6ccc(C(=O)O)nc6n5C[C@@H]5CCO5)CC4)n3)c(F)c21 |  |  | 0.8 nM |  |  |  |  |  |  |
| N#Cc1ccc(Cc2cccc(OC3CCN(Cc4nc5ccc(C(=O)O)cc5n4C[C@@H]4CCO4)CC3)n2)c(F)c1 |  |  | 1.14 nM |  |  |  |  |  |  |
| CC1(c2ccc(COc3cccc(-c4ccc(Cc5nc6ccc(C(=O)O)cc6n5C[C@@H]5CCO5)c(F)c4)n3)c(F)c2)CC(F)(F)C1 |  |  | 3.1 nM |  |  |  |  |  |  |
| O=C(O)c1ccc2nc(CN3CCC(Oc4cccc(COc5ccc6cnn(CC(F)F)c6c5)n4)CC3)n(C[C@@H]3CCO3)c2n1 | -0.55% | 0.36 h | 0.085 nM | 2.69% | 133 ng/mL | 601 mL/min/kg | 149 ng·h/mL | 10.8% | 4.27 h |
| CC1(c2ccc(COc3cccc(-c4ccc(Cc5nc6ccc(C(=O)O)nc6n5C[C@@H]5CCO5)c(F)c4)n3)c(F)c2)CC(F)(F)C1 |  |  | 2.64 nM |  |  |  |  |  |  |
| O=C(O)c1cc2c(nc(CN3CCC(Oc4cccc(Cc5ccc(Cl)c6ccoc56)n4)CC3)n2C[C@@H]2CCO2)s1 |  |  | 70 nM |  |  |  |  |  |  |
| O=C(O)c1ccc2nc(CN3CCC(Oc4cccc(Cc5ccc(Cl)c6c5OCC6)n4)CC3)n(C[C@@H]3CCO3)c2n1 | 0.7% | 0.67 h | 0.047 nM | 5.1% | 24.1 ng/mL | 458 mL/min/kg | 182 ng·h/mL | 28.5% | 10.5 h |
